Here are results for three molecules from patent publication US6177103A, “Processes to generate submicron particles of water-insoluble compounds” (RTP Pharma, Inc., priority 1999, dated 2001).

The conditions of data set [1]: cited from earlier work.
Data set [2] in a line: Particle sizing by photon correlation spectroscopy, fenofibrate microparticles by RELGS process (Example 2). Format: physicochemical. Particulars: Lipoid E-80 and Tween-80 in liquefied carbon dioxide at 3000 psi expanded into water, 22° C. Here is the method: The particle sizing was performed by photon correlation spectroscopy using Submicron Particle Sizer-Autodilute Model 370 (NICOMP Particle Sizing Systems, Santa Barbara, Calif.). This instrument provides number weighted, intensity weighted, and volume weighted particle size distributions as well as multi-modality of the particle size distribution, if present.

Consider `CC[C@H](C)C(=O)O[C@H]1C[C@@H](C)C=C2C=C[C@H](C)[C@H](CC[C@@H]3C[C@@H](O)CC(=O)O3)[C@H]21` [lovastatin], for which the particle size in data set [1] (micro-particles by rapid expansion from liquefied-gas solution in the supercritical region, most particle sizes reported for organic materials) is given as 5-100 micron. In the case of `CC1=C(/C=C/C(C)=C/C=C/C(C)=C/C=C/C=C(C)/C=C/C=C(C)/C=C/C2=C(C)CCCC2(C)C)C(C)(C)CCC1` [beta-carotene], the nanoparticle size in data set [1] (expansion of ethane into a viscous gelatin solution) is 300 nm.

Take `CC(C)OC(=O)C(C)(C)Oc1ccc(C(=O)c2ccc(Cl)cc2)cc1` [Fenofibrate, fenofibrate]: in data set [2], the mean particle size entry was “about 200 nm”.
